Laboratory results reported in paper PMC6941952, “A homogeneous bioluminescent immunoassay to probe cellular signaling pathway regulation” (Communications Biology, 2020).
Values joined by “and” are separate entries in the source; they are usually repeats but may differ in a detail not shown here. Equal values may be shown once.

How the values were obtained:
Design in all cases: species or system human
AKT Phospho-Ser473 = assay: NanoBiT p-AKT cell-based immunoassay in MCF-7 cells; conditions: for P-AKT (% compared to no LY294002) / P-AKT, Raw data / P-AKT, Subtract reagent background: single replicates
Protocol: (§1) Prior to NanoBiT Cell-Based Immunoassay, 50,000 cells were seeded in 160 µl of complete growth media per well of a 96-well plate and incubated overnight. The cells were checked under microscope and it was determined that 50,000 cells per well in 96-well plate is under 90% confluency for all cells tested. If necessary, the cell culture media were replaced with serum-free media after the cells were stably adherent on the plate and incubated overnight. To treat cells with activators or inhibitors, medium was changed to 30 µl of medium containing inhibitors. If activation of a specific pathway is needed, the cells were stimulated with 10 µl of medium containing activators. To lyse the cells, 10 µl of lysis buffer containing 0.1% digitonin diluted in 1X immunoassay buffer with protease and phosphatase inhibitors was added and the plates were mixed vigorously for 20 min. Then, 50 µl of an antibody mix containing two primary antibodies against the target protein and NanoBiT detecting antibodies (0.3 µl each per well), diluted in 1X immunoassay buffer was added to the lysates. The plates were incubated at 23 °C for 90 min, followed by the addition of 25 µl of Nano-Glo® reagent consisting of Nano-Glo® Luciferase Assay Substrate mixed with 1X immunoassay buffer. Luminescence was measured using a plate-reading luminometer.
(§2) Single dose or dose response inhibitor treatments were performed prior to activation of the pathways as follows. For IκBα, the cells were treated in 30 µl medium with IKK16 or MG132 for 60 min before the addition of 10 µl of DMEM containing appropriate concentration of TNFα. To measure phosphorylation of AKT or STAT3, the corresponding NanoBiT immunoassays were developed with MCF-7 or A431 cells, respectively, according the same scheme used to develop the IκBα assay using the primary antibodies for AKT and STAT3 described in the reagents section. For the AKT assay, MCF-7 cells were incubated overnight in phenol-red free DMEM medium (Gibco #21063-029) without serum. Treatment with LY294002 was performed in 30 µl medium and cells were incubated for 60 min before the addition of 1 µM Insulin. To measure STAT3 phosphorylation, A431 cells were incubated overnight in DMEM medium without serum. […] After addition of the stimulators, the cells were incubated for additional times as follows. IκBα phosphorylation and degradation analyses required both time courses and single time points as described in figures. […] The NanoBiT immunoassay protocol was followed as described above.
(§3) All 96-well assay plates were read using a GloMax® 96 Microplate Luminometer from Promega. The instrument was set to 0.5 s integration time. In order to obtain net change of signal, the reagent background values (signal from the well containing all reagent except primary antibodies) were subtracted from the sample values. To plot and analyze the data, Microsoft Excel and GraphPad Prism® Software were used. IC50 values were determined by using a nonlinear regression fit to a sigmoidal dose response (variable slope).

total AKT = assay: NanoBiT cell-based immunoassay, total AKT in MCF-7 cells; conditions: for total level of AKT protein: MCF-7 cells, insulin 1 µM 10 min, LY294002 20 µM 1 h
Protocol: as §1, §2, §3

STAT3 Phospho-Tyr705 = assay: NanoBiT pSTAT3 cell-based immunoassay in A431 cells; conditions: substance alone
Method in brief: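 Cells were lysed in 0.1% digitonin buffer, then target protein was detected with two primary antibodies plus NanoBiT detection antibodies (90 min, 23 °C), read as luminescence minus reagent background. For pSTAT3, A431 cells were serum-starved overnight before inhibitor and stimulator. For IκBα, MCF-7 cells got inhibitor for 60 min before TNFα. IC50 came from variable-slope sigmoidal fits.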

total STAT3 = assay: NanoBiT cell-based immunoassay, total STAT3 in A431 cells; conditions: substance alone
Protocol: as §1, with “The cells were checked under microscope and it was determined that 50,000 cells per well in 96-well plate is under 90% confluency for all cells tested.” left out
Single dose or dose response inhibitor treatments were performed prior to activation of the pathways as follows. For IκBα, the cells were treated in 30 µl medium with IKK16 or MG132 for 60 min before the addition of 10 µl of DMEM containing appropriate concentration of TNFα. To measure phosphorylation of AKT or STAT3, the corresponding NanoBiT immunoassays were developed with MCF-7 or A431 cells, respectively, according the same scheme used to develop the IκBα assay using the primary antibodies for AKT and STAT3 described in the reagents section. […] Treatment with LY294002 was performed in 30 µl medium and cells were incubated for 60 min before the addition of 1 µM Insulin. […]
All 96-well assay plates were read using a GloMax® 96 Microplate Luminometer from Promega. […] IC50 values were determined by using a nonlinear regression fit to a sigmoidal dose response (variable slope).

[1] = LY294002 0.00190735 uM, Insulin 1 uM
[2] = LY294002 0.00762939 uM, Insulin 1 uM
[3] = LY294002 0.0305176 uM, Insulin 1 uM
[4] = LY294002 0.12207 uM, Insulin 1 uM
[5] = LY294002 0.488281 uM, Insulin 1 uM
[6] = LY294002 1.95312 uM, Insulin 1 uM
[7] = LY294002 7.8125 uM, Insulin 1 uM
[8] = LY294002 31.25 uM, Insulin 1 uM
[9] = background subtracted, average of replicates
[10] = substance alone, background subtracted, average of replicates
[11] = substance alone, single replicates

Compound: O=c1cc(N2CCOCC2)oc2c(-c3ccccc3)cccc12 [LY294002, 2-(4-morpholinyl)-8-phenyl-4H-1-benzopyran-4-one]
- IC50 (AKT Phospho-Ser473; Homo sapiens, MCF7, MCF-7 cells, pretreated 1 h, insulin 1 µM 10 min, read-out: IC50, inhibition of AKT phosphorylation after insulin treatment): 8.89 µM
- P-AKT (% compared to no LY294002), Average (AKT Phospho-Ser473; LY294002 0.00190735 uM, Insulin 1 uM, average of replicates): 98.2%
- P-AKT (% compared to no LY294002) (AKT Phospho-Ser473; [1]): 99.8% and 97.4% and 97.5%
- P-AKT, Raw data (AKT Phospho-Ser473; [1]): 2596000 and 2655000 and 2614000
- P-AKT, Subtract reagent background (AKT Phospho-Ser473; [1]): 2495800 and 2454800 and 2436800
- P-AKT (% compared to no LY294002), Average (AKT Phospho-Ser473; LY294002 0.00762939 uM, Insulin 1 uM, average of replicates): 100.2%
- P-AKT (% compared to no LY294002) (AKT Phospho-Ser473; [2]): 101.9% and 99.8% and 98.9%
- P-AKT, Raw data (AKT Phospho-Ser473; [2]): 2632000 and 2707000 and 2673000
- P-AKT, Subtract reagent background (AKT Phospho-Ser473; [2]): 2548800 and 2514800 and 2473800
- P-AKT (% compared to no LY294002), Average (AKT Phospho-Ser473; LY294002 0.0305176 uM, Insulin 1 uM, average of replicates): 99.6%
- P-AKT (% compared to no LY294002) (AKT Phospho-Ser473; [3]): 100.5% and 98.7% and 99.6%
- P-AKT, Raw data (AKT Phospho-Ser473; [3]): 2646000 and 2668000 and 2645000
- P-AKT, Subtract reagent background (AKT Phospho-Ser473; [3]): 2511750 and 2488750 and 2489750
- P-AKT (% compared to no LY294002), Average (AKT Phospho-Ser473; LY294002 0.12207 uM, Insulin 1 uM, average of replicates): 97.0%
- P-AKT (% compared to no LY294002) (AKT Phospho-Ser473; [4]): 98.2% and 96.0% and 96.8%
- P-AKT, Raw data (AKT Phospho-Ser473; [4]): 2577000 and 2614000 and 2578000
- P-AKT, Subtract reagent background (AKT Phospho-Ser473; [4]): 2456500 and 2420500 and 2419500
- P-AKT (% compared to no LY294002), Average (AKT Phospho-Ser473; LY294002 0.488281 uM, Insulin 1 uM, average of replicates): 97.0%
- P-AKT (% compared to no LY294002) (AKT Phospho-Ser473; [5]): 100.1% and 96.2% and 94.5%
- P-AKT, Raw data (AKT Phospho-Ser473; [5]): 2521000 and 2661000 and 2582000
- P-AKT, Subtract reagent background (AKT Phospho-Ser473; [5]): 2503600 and 2424600 and 2363600
- P-AKT (% compared to no LY294002), Average (AKT Phospho-Ser473; LY294002 1.95312 uM, Insulin 1 uM, average of replicates): 89.9%
- P-AKT (% compared to no LY294002) (AKT Phospho-Ser473; [6]): 90.1% and 89.4%
- P-AKT, Raw data (AKT Phospho-Ser473; [6]): 2390000 and 2409000 and 2425000
- P-AKT, Subtract reagent background (AKT Phospho-Ser473; [6]): 2253650 and 2269650 and 2234650
- P-AKT (% compared to no LY294002), Average (AKT Phospho-Ser473; LY294002 7.8125 uM, Insulin 1 uM, average of replicates): 57.7%
- P-AKT (% compared to no LY294002) (AKT Phospho-Ser473; [7]): 58.2% and 58.0% and 57.0%
- P-AKT, Raw data (AKT Phospho-Ser473; [7]): 1581000 and 1612000 and 1617000
- P-AKT, Subtract reagent background (AKT Phospho-Ser473; [7]): 1455800 and 1460800 and 1424800
- P-AKT (% compared to no LY294002), Average (AKT Phospho-Ser473; LY294002 31.25 uM, Insulin 1 uM, average of replicates): 11.5%
- P-AKT (% compared to no LY294002) (AKT Phospho-Ser473; [8]): 11.5% and 11.7% and 11.4%
- P-AKT, Raw data (AKT Phospho-Ser473; [8]): 439900 and 442300 and 448200
- P-AKT, Subtract reagent background (AKT Phospho-Ser473; [8]): 288200 and 294100 and 285800
- P-AKT (% compared to no LY294002), Average (AKT Phospho-Ser473; LY294002 500 uM, Insulin 1 uM, average of replicates): 1.5%
- P-AKT (% compared to no LY294002) (AKT Phospho-Ser473; LY294002 500 uM, Insulin 1 uM): 1.5% and 1.4% and 1.6%
- P-AKT, Raw data (AKT Phospho-Ser473; LY294002 500 uM, Insulin 1 uM): 166500 and 165600 and 161400
- P-AKT, Subtract reagent background (AKT Phospho-Ser473; LY294002 500 uM, Insulin 1 uM): 38600 and 34400 and 39500
- P-AKT (% compared to no LY294002), Average (AKT Phospho-Ser473; LY294002 […], Insulin 1 uM, average of replicates): 1.8%
- insulin-induced increase in AKT phosphorylation (AKT Phospho-Ser473; MCF-7 cells, 20 µM 1 h pretreatment, insulin 1 µM 10 min): suppressed
- total level of AKT protein (total AKT): stayed constant

Compound: IL-6
- P-STAT3, Average (STAT3 Phospho-Tyr705; [9]): 418850
- P-STAT3 Raw data (STAT3 Phospho-Tyr705; single replicates): 458600 and 528900 and 577100
- P-STAT3 Subtract reagent background (STAT3 Phospho-Tyr705; single replicates): 355917 and 426217 and 474417
- Total STAT3, Average (total STAT3; [9]): 1196983
- Total Stat3, Raw data (total STAT3; single replicates): 1090000 and 1448000
- Total Stat3, Subtract reagent background (total STAT3; single replicates): 1345317 and 987317

Compound: insulin: Insulin (#I-0516) from Sigma-Aldrich, AKT pathway stimulator
- AKT phosphorylation over the level in non-treated cells (AKT Phospho-Ser473; MCF-7 cells, insulin 1 µM 10 min): more than 20 fold
- P-AKT, Average (AKT Phospho-Ser473; [10]): 2201625
- P-AKT, Raw data (AKT Phospho-Ser473; substance alone): 2263000 and 2421000 and 2357000 and 2406000
- P-AKT, Subtract reagent background (AKT Phospho-Ser473; substance alone): 2102700 and 2260800 and 2195400 and 2247600
- total level of AKT protein (total AKT): stayed constant
- Total AKT, Average (total AKT; [10]): 108225
- Total AKT, Raw data (total AKT; [11]): 265700 and 270200 and 257000 and 278000
- Total AKT, Subtract reagent background (total AKT; [11]): 121700 and 104800 and 109800 and 96600
